{"source": "ChEMBL document CHEMBL1201862", "about": "“PubChem BioAssay data set” (2004)", "key": {"[1]": {"experiment": "Concentration-dependent survival of SW480 colon cancer line, luminescence detection with CellTiter-Glo, half-maximal inhibitory concentration (AID 1117338)", "type": "functional"}, "Streptokinase A": {"molecular_target": "T1, Streptokinase A (Streptococcus pyogenes serotype M1, UniProt P10520)", "T1 sequence (P10520 whole entry)": "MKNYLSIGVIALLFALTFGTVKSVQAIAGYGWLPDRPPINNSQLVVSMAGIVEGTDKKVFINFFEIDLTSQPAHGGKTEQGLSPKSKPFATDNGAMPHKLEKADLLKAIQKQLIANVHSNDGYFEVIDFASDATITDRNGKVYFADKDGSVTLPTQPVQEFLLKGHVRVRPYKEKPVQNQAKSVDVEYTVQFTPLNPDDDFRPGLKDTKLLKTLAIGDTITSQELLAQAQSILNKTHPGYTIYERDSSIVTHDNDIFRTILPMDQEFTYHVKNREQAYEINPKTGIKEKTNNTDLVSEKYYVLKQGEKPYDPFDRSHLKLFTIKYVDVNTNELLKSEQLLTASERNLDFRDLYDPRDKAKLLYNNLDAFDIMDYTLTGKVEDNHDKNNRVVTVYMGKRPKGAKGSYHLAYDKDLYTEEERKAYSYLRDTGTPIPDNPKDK", "experiment": "S. pyogenes streptokinase expression inhibitors, potency, dose response, plasminogen activation absorbance, OD405 (AID 1914);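 also: secreted streptokinase activity via plasminogen activation per viability signal from cell pellet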", "type": "functional, Streptococcus pyogenes M1 GAS"}, "[2]": {"experiment": "cytotoxicity in HPDE-C7 cells, cell-based, fluorescence, HTS (AID 430)", "type": "functional", "details": "Homo sapiens"}, "[3]": {"molecular_target": "Serine/threonine-protein kinase PLK3 (Homo sapiens, UniProt Q9H4B4)", "sequence (Q9H4B4 whole entry)": "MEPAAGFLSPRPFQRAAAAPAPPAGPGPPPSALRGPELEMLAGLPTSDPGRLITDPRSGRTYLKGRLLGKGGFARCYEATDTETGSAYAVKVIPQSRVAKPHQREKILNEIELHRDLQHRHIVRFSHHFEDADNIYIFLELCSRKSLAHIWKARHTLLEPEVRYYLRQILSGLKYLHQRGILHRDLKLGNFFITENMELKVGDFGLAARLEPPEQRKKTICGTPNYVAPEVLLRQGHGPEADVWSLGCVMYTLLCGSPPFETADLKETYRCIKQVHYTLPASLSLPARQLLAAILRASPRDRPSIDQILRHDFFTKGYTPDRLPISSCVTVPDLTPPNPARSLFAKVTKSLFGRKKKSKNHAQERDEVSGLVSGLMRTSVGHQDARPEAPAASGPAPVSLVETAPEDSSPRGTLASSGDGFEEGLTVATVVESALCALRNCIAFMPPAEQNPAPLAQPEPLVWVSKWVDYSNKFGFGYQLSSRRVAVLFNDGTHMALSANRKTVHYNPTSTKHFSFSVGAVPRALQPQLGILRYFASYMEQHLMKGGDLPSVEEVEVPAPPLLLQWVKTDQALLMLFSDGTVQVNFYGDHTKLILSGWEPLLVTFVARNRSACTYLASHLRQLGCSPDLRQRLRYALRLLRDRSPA", "type": "functional"}, "[4]": {"molecular_target": "Cyclin-dependent kinase 7 (Homo sapiens, UniProt P50613)", "sequence (P50613 whole entry)": "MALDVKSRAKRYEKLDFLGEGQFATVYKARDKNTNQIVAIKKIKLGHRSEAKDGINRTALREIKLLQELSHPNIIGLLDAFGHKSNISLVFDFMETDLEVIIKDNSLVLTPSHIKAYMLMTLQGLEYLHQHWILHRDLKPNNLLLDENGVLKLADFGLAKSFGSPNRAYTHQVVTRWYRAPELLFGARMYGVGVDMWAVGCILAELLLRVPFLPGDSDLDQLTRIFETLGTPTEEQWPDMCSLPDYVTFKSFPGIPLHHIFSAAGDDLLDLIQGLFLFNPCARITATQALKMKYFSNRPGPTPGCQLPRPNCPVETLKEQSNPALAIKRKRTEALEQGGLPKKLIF", "type": "functional"}, "[5]": {"molecular_target": "Interleukin-1 receptor-associated kinase 1 (Homo sapiens, UniProt P51617)", "sequence (P51617 whole entry)": "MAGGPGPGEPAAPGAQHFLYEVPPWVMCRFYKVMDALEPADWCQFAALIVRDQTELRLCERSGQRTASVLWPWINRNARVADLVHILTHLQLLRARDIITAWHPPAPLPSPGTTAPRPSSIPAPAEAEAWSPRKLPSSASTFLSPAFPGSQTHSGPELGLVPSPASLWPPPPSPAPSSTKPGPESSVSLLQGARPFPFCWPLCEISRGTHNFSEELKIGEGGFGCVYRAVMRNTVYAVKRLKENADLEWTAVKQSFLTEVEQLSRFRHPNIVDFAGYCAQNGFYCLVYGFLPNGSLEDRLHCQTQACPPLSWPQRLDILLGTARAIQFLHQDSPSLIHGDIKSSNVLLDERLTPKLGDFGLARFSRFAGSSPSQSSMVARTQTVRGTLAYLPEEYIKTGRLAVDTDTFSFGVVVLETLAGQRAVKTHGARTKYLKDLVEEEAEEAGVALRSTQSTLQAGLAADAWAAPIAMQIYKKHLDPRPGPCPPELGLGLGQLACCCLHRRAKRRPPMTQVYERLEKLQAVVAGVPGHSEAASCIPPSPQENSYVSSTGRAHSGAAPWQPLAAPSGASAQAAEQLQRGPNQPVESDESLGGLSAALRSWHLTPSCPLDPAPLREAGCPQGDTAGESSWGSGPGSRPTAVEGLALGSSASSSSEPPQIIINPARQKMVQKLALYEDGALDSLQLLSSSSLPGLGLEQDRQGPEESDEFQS", "type": "functional"}, "[6]": {"molecular_target": "Death-associated protein kinase 3 (Homo sapiens, UniProt O43293)", "type": "functional"}, "[7]": {"molecular_target": "Protein kinase C zeta type (Homo sapiens, UniProt Q05513)", "type": "functional"}, "[8]": {"molecular_target": "Serine/threonine-protein kinase N2 (Homo sapiens, UniProt Q16513)", "type": "functional"}, "[9]": {"molecular_target": "Serine/threonine-protein kinase TAO1 (Homo sapiens, UniProt Q7L7X3)", "type": "functional"}, "[10]": {"molecular_target": "Serine/threonine-protein kinase Chk1 (Homo sapiens, UniProt O14757)", "type": "functional"}, "[11]": {"molecular_target": "Serine/threonine-protein kinase Chk2 (Homo sapiens, UniProt O96017)", "sequence (O96017 whole entry)": "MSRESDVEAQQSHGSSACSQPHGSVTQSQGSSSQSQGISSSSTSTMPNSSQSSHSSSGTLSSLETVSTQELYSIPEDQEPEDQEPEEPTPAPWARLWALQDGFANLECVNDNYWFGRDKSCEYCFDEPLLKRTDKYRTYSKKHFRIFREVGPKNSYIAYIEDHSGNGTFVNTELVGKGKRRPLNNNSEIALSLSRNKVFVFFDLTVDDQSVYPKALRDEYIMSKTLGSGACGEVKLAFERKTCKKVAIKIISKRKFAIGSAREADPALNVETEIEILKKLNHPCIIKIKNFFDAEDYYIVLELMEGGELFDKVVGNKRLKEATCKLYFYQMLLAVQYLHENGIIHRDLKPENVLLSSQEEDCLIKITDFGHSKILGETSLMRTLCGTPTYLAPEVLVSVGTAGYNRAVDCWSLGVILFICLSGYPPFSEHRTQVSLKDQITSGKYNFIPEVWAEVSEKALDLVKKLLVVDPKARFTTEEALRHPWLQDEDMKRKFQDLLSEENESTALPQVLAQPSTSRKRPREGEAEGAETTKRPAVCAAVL", "type": "functional"}, "[12]": {"molecular_target": "Receptor tyrosine-protein kinase erbB-2 (Homo sapiens, UniProt P04626)", "experiment": "Navigating the Kinome. Panel member name: ERBB2", "type": "functional"}, "[13]": {"molecular_target": "Tyrosine-protein kinase Lck (Homo sapiens, UniProt P06239)", "sequence (P06239 whole entry)": "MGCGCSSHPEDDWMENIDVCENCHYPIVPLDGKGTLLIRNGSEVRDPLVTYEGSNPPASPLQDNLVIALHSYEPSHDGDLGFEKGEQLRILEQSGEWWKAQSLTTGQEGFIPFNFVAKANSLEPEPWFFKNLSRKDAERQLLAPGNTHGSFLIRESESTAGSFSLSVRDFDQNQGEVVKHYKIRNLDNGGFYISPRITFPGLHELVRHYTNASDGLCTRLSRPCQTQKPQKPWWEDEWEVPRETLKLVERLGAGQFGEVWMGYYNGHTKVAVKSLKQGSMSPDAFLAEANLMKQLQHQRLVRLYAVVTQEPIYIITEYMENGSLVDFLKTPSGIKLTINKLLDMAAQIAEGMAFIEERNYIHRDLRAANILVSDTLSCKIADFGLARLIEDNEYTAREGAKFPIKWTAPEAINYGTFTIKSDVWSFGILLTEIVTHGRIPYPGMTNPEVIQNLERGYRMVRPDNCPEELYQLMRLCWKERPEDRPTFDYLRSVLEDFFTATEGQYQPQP", "type": "functional"}, "[14]": {"molecular_target": "Tyrosine-protein kinase ITK/TSK (Homo sapiens, UniProt Q08881)", "sequence (Q08881 whole entry)": "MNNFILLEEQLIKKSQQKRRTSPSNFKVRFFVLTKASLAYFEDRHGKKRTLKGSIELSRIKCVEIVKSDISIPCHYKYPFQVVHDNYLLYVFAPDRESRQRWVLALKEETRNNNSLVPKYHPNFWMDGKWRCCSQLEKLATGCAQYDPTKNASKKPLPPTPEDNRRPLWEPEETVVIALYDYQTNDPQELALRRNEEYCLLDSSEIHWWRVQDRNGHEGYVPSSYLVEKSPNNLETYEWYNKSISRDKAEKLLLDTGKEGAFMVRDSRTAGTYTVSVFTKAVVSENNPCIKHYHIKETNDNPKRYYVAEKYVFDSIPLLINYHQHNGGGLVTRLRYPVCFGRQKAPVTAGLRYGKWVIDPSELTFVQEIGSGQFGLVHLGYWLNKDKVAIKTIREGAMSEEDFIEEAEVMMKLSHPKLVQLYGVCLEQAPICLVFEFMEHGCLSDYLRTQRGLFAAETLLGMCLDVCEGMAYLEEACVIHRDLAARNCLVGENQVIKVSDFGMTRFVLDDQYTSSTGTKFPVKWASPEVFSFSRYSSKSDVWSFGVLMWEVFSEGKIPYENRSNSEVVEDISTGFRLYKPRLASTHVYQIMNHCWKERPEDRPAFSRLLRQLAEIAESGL", "type": "functional"}, "[15]": {"molecular_target": "Maternal embryonic leucine zipper kinase (Homo sapiens, UniProt Q14680)", "sequence (Q14680 whole entry)": "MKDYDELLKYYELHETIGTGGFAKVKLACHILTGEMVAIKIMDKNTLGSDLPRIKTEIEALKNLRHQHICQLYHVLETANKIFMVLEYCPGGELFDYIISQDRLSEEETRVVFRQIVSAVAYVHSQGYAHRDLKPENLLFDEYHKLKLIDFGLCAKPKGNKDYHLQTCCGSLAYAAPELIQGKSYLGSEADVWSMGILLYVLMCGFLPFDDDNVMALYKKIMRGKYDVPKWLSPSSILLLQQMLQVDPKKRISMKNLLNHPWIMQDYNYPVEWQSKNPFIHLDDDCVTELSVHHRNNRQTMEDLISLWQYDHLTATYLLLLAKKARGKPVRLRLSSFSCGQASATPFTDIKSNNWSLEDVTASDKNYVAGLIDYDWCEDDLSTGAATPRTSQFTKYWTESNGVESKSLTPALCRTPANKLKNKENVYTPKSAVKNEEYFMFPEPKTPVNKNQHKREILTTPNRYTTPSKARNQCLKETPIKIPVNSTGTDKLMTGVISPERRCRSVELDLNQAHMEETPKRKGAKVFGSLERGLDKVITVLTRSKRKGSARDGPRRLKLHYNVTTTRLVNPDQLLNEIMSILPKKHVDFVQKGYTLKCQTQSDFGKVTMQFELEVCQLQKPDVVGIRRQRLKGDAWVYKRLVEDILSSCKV", "type": "functional"}, "[16]": {"molecular_target": "Casein kinase I isoform delta (Homo sapiens, UniProt P48730)", "sequence (P48730 whole entry, canonical isoform)": "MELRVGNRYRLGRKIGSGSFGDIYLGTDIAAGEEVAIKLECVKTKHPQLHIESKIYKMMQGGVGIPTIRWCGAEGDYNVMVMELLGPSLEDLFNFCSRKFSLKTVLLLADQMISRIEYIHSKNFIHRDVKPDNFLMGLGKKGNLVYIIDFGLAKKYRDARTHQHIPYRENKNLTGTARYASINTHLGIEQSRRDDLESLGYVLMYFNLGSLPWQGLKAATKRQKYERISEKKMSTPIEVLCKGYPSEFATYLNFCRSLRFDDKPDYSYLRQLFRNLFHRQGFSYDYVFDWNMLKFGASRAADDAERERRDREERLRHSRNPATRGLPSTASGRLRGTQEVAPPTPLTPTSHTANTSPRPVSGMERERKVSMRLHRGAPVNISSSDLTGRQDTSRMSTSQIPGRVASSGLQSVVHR", "type": "functional"}, "[17]": {"molecular_target": "MAP kinase-activated protein kinase 5 (Homo sapiens, UniProt Q8IW41)", "sequence (Q8IW41 whole entry)": "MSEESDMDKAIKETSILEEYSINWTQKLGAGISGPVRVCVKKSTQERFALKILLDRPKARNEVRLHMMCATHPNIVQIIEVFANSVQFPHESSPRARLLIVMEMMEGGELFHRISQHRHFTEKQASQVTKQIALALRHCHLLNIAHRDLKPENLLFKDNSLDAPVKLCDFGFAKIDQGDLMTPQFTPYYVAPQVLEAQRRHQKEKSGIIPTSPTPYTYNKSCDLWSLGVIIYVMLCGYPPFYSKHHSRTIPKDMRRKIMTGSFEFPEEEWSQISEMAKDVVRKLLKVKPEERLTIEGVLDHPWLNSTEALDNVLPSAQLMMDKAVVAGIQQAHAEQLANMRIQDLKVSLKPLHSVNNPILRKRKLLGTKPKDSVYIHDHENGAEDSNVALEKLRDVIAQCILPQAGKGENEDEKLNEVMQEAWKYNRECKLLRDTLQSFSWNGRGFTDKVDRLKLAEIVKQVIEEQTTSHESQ", "type": "functional"}, "[18]": {"molecular_target": "Dual specificity protein kinase CLK2 (Homo sapiens, UniProt P49760)", "type": "functional"}, "[19]": {"molecular_target": "T2, Histone-lysine N-methyltransferase NSD2 (Homo sapiens, UniProt O96028)", "T2 sequence (O96028 whole entry)": "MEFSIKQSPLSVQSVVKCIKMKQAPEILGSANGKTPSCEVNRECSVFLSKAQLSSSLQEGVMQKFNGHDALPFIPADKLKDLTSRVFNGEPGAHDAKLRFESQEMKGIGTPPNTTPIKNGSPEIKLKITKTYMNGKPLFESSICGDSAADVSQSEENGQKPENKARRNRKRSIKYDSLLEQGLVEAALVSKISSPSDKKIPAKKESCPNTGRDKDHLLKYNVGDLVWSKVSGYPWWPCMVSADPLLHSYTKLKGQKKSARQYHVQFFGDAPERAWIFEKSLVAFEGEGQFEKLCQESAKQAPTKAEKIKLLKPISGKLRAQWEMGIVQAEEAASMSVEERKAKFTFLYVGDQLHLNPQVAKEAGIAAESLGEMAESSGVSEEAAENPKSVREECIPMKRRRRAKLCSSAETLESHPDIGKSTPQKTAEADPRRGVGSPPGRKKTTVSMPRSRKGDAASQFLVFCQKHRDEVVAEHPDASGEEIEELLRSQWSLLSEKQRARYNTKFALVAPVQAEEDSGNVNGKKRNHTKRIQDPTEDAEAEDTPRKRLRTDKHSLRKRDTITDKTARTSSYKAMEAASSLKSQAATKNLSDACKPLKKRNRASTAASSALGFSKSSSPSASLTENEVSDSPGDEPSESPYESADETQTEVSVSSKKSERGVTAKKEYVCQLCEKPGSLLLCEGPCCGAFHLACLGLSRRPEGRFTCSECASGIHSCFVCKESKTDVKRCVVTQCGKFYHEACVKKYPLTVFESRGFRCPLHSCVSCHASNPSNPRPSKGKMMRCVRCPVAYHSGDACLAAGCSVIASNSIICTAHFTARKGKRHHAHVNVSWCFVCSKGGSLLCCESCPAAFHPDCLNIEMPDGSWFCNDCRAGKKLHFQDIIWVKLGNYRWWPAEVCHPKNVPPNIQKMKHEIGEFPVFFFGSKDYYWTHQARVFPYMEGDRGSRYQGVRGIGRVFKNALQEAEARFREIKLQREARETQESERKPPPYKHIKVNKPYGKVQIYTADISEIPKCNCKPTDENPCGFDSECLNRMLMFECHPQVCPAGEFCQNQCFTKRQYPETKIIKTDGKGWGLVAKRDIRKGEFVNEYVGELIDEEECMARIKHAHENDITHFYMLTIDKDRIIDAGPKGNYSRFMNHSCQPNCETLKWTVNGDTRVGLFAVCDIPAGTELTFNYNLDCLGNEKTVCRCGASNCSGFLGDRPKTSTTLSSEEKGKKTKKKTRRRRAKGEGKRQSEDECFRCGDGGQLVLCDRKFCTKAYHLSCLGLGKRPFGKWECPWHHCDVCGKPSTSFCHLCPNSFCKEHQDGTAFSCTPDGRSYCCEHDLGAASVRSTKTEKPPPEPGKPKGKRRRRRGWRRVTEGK", "type": "biochemical"}, "[20]": {"experiment": "inhibitors of firefly luciferase expression or activity, dose response, H4 neuroglioma cells, luminescence (AID 1990)", "type": "functional, cell-based"}, "HEK293": {"tested_on": "HEK293", "experiment": "cells", "type": "functional, cell-based", "details": "Homo sapiens"}}, "note": "Calls of active or inactive are those of the source."}
{"smiles": "CCc1oc2ccccc2c1C(=O)c1cc(Br)c(O)c(Br)c1", "note": "[BENZBROMARONE]", "values": [{"measurement": "IC50", "setting": "[1]", "result": "1.74 µM (active)"}, {"measurement": "EC50", "setting": "Streptokinase A", "result": "17.2 µM (inconclusive)"}, {"measurement": "EC50", "setting": "[2]", "result": "5.71 µM (active)"}]}
{"smiles": "N#Cc1ccc2[nH]c(O)c(-c3ccc(CN4CCOCC4)cn3)c2c1", "note": "[AZD-1080]", "values": [{"measurement": "Ki", "setting": "[3]", "result": "> 7.94 µM (inactive)"}, {"measurement": "Ki", "setting": "[4]", "result": "1 µM (active)"}, {"measurement": "Ki", "setting": "[5]", "result": "> 7.94 µM (inactive)"}, {"measurement": "Ki", "setting": "[6]", "result": "> 3.98 µM (inactive)"}, {"measurement": "Ki", "setting": "[7]", "result": "> 7.94 µM (inactive)"}, {"measurement": "Ki", "setting": "[8]", "result": "> 6.31 µM (inactive)"}, {"measurement": "Ki", "setting": "[9]", "result": "> 7.94 µM (inactive)"}, {"measurement": "Ki", "setting": "[10]", "result": "> 7.94 µM (inactive)"}, {"measurement": "Ki", "setting": "[11]", "result": "> 1.58 µM (inactive)"}, {"measurement": "Ki", "setting": "[12]", "result": "> 1.58 µM (inactive)"}, {"measurement": "Ki", "setting": "[13]", "result": "> 5.01 µM (inactive)"}, {"measurement": "Ki", "setting": "[14]", "result": "> 1.58 µM (inactive)"}, {"measurement": "Ki", "setting": "[15]", "result": "> 1.58 µM (inactive)"}, {"measurement": "Ki", "setting": "[16]", "result": "> 7.94 µM (inactive)"}, {"measurement": "Ki", "setting": "[17]", "result": "> 1.58 µM (inactive)"}, {"measurement": "Ki", "setting": "[18]", "result": "> 5.01 µM (inactive)"}]}
{"smiles": "O=C1C=C(N2CCOCC2)c2ccccc2C1=O", "values": [{"measurement": "AC50", "setting": "[19]", "result": "1.38 µM (active)"}, {"measurement": "EC50", "setting": "[20]", "result": "8.37 µM (active)"}, {"measurement": "IC50", "setting": "HEK293", "result": "9.46 µM (active)"}]}
